Measured values reported in ChEMBL document CHEMBL4190238, “Discovery of potent IDO1 inhibitors derived from tryptophan using scaffold-hopping and structure-based design approaches” (Eur J Med Chem, 2017).
The source made the active and inactive calls. The rule behind the calls is not given here.

Experiments:
[1] = biological target: T1, Indoleamine 2,3-dioxygenase 1 (Homo sapiens, UniProt P14902); assay: Inhibition of IFNgamma-induced IDO1 in human HeLa cells using L-tryptophan as substrate after 24 hrs; assay type: cell-based
Target sequence in this assay (P14902 whole entry): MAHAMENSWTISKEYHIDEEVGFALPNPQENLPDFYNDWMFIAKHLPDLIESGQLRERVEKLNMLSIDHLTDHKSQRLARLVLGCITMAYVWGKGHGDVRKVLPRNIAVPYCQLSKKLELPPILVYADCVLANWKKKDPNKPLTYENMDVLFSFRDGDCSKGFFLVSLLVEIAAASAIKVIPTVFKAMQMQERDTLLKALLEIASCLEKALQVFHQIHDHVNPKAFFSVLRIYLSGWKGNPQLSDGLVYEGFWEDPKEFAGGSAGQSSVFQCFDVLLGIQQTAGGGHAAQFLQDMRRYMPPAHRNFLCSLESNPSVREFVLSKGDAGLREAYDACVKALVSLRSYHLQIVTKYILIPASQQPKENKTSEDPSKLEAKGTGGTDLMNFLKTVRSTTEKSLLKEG

HeLa [2] = assay: Cytotoxicity against human HeLa cells assessed as reduction in cell viability at 10 to 30 uM after 24 hrs by MTT assay; assay type: cell-based
[3] = biological target: Indoleamine 2,3-dioxygenase 1 (Mus musculus) (UniProt P28776); assay: Inhibition of IDO1 in mouse B16F1 cells co-cultured with Balb/c mouse T-cells assessed as increase in IFN-gamma level at 1.5 uM after 48 hrs by ELISA; assay type: cell-based
Chain of Indoleamine 2,3-dioxygenase 1 (Mus musculus) (P28776 whole entry, looked up): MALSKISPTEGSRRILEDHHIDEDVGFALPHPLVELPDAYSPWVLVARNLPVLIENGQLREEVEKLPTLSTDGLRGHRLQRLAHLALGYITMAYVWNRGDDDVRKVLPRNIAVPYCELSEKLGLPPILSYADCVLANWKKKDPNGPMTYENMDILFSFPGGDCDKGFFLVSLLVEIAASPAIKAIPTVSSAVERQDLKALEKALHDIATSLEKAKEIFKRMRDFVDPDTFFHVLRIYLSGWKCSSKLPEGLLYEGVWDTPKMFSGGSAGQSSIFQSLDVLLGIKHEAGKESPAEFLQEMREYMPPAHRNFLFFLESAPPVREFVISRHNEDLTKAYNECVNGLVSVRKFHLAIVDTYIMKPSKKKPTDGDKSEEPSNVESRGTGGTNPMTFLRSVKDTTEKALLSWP

[4] = biological target: Indoleamine 2,3-dioxygenase 1 (Mus musculus) (UniProt P28776); assay: Inhibition of IDO1 in mouse B16F1 cells co-cultured with Balb/c mouse T-cells assessed as reversal of IDO1-mediated suppression of T-cell proliferation at 1.5 uM after 48 hrs by MTT assay; assay type: cell-based
[5] = biological target: Indoleamine 2,3-dioxygenase 1 (Mus musculus) (UniProt P28776); assay: Inhibition of IDO1 in mouse B16F1 cells co-cultured with Balb/c mouse T-cells assessed as decrease in differentiation of Treg cells by measuring CD4+/CD25+/FOXP3 cells at 18 uM by FITC/APC/PE staining based flow cytometry (reference value: 11.7%); assay type: cell-based; design: scale not given: the % may be the effect or the level left
[6] = biological target: Indoleamine 2,3-dioxygenase 1 (Mus musculus) (UniProt P28776); assay: Inhibition of IDO1 in mouse B16F1 cells co-cultured with Balb/c mouse T-cells assessed as increase in IFN-gamma level at 18 uM after 48 hrs by ELISA; assay type: cell-based
[7] = biological target: Indoleamine 2,3-dioxygenase 1 (Mus musculus) (UniProt P28776); assay: Inhibition of IDO1 in mouse B16F1 cells co-cultured with Balb/c mouse T-cells assessed as reversal of IDO1-mediated suppression of T-cell proliferation at 18 uM after 48 hrs by MTT assay; assay type: cell-based
HeLa [8] = assay: Inhibition of IFNgamma-induced IDO1 protein expression in human HeLa cells at IDO1 inhibitory IC50 after 24 hrs by Western blot method; assay type: functional, cell-based
[9] = biological target: Indoleamine 2,3-dioxygenase 1 (Mus musculus) (UniProt P28776); assay: Inhibition of IDO1 in mouse B16F1 cells co-cultured with Balb/c mouse T-cells assessed as reversal of IDO1-mediated suppression of T-cell proliferation at 30 uM after 48 hrs by MTT assay; assay type: cell-based
[10] = biological target: T1, Indoleamine 2,3-dioxygenase 1; assay: Binding affinity to recombinant human IDO1 assessed as interaction with ferrous ion in enzyme active site by measuring absorbance maxima for ferrous heme at 2 mM by UV-Visible spectral analysis (reference value: 424 nanometer)
Target sequence in this assay (P14902 whole entry, looked up): as the sequence (P14902 whole entry) above

[11] = biological target: Indoleamine 2,3-dioxygenase 1 (Mus musculus) (UniProt P28776); assay: Inhibition of IDO1 in mouse B16F1 cells co-cultured with Balb/c mouse T-cells assessed as decrease in differentiation of Treg cells by measuring CD4+/CD25+/FOXP3 cells at 30 uM by FITC/APC/PE staining based flow cytometry (reference value: 11.7%); assay type: cell-based; design: scale not given: the % may be the effect or the level left
[12] = biological target: Indoleamine 2,3-dioxygenase 1 (Mus musculus) (UniProt P28776); assay: Inhibition of IDO1 in mouse B16F1 cells co-cultured with Balb/c mouse T-cells assessed as increase in IFN-gamma level at 30 uM after 48 hrs by ELISA; assay type: cell-based

IC50 [1] | SMILES | Activity (HeLa [2]) | further results
80.6 µM | O=c1oc2ccccc2n1CC(O)c1cccc(Cl)c1 (stereo not drawn) | Non-Toxic | 
> 100 µM | COc1ccc(NC(=O)n2c(=O)oc3ccc(Cl)cc32)cc1 | Non-Toxic | 
53.1 µM | O=C(Cn1c(=O)oc2ccccc21)c1ccc(F)cc1 | Non-Toxic | 
76.6 µM | O=C(Cn1c(=O)oc2ccc(Cl)cc21)c1cccc(Cl)c1 | Non-Toxic | 
60.9 µM | O=c1oc2ccc(Cl)cc2n1CC(O)c1cccc(Cl)c1 (stereo not drawn) | Non-Toxic | 
99.8 µM | O=c1oc2ccc([N+](=O)[O-])cc2n1Cc1cccc(F)c1 | Non-Toxic | 
28.5 µM | O=c1oc2ccc(F)cc2n1Cc1cccc(F)c1 | Non-Toxic | 
62.7 µM | O=c1oc2ccc(Cl)cc2n1CC(O)c1ccc(Cl)cc1 (stereo not drawn) | Non-Toxic | 
49.3 µM | O=C(Cn1c(=O)oc2ccccc21)c1cccc(Cl)c1 | Non-Toxic | 
31.8 µM | COc1ccc(CNC(=O)n2c(=O)oc3ccccc32)cc1 | Non-Toxic | 
22.7 µM | Nc1nc2ccccc2n1C(=O)Cc1ccc(F)cc1 | Non-Toxic | 
80.8 µM | O=c1oc2ccc(F)cc2n1Cc1ccc(Cl)cc1 | Non-Toxic | 
99.9 µM | O=c1[nH]c2ccccc2n1CC(O)c1ccc(F)cc1 (stereo not drawn) | Non-Toxic | 
 | OC(CC1c2ccccc2-c2cncn21)C1CCCCC1 (racemic) |  | inhibition [3]: Active; inhibition [4]: Active
> 100 µM | O=c1oc2ccccc2n1CCc1ccccc1 | Non-Toxic | 
20.7 µM | O=C(Cn1c(=O)oc2ccc(Cl)cc21)c1ccc(F)cc1 | Non-Toxic | 

IC50 [1] | SMILES | Activity (HeLa [2]) | further results
38.6 µM | O=C(Cn1c(=O)oc2ccccc21)c1ccc(Cl)cc1 | Non-Toxic | 
49.3 µM | O=c1oc2ccccc2n1CC(O)c1ccc(F)cc1 (stereo not drawn) | Non-Toxic | 
14.6 µM | COc1cccc(CNC(=O)n2c(=O)oc3ccc(Cl)cc32)c1 | Non-Toxic | 
> 100 µM | Nc1ccc2oc(=O)n(Cc3cccc(F)c3)c2c1 | Non-Toxic | 
10.2 µM | O=c1oc2ccc(Cl)cc2n1CC(O)c1ccc(F)cc1 (stereo not drawn) | Non-Toxic | 
17.9 µM | O=c1oc2ccc(Cl)cc2n1CCc1ccccc1 | Non-Toxic | 
90.5 µM | O=C(c1ccccc1)n1c(=O)oc2ccccc21 | Non-Toxic | 
6.4 µM | O=C(Cc1ccc(F)cc1)n1c(=O)oc2ccc(Cl)cc21 | Non-Toxic | Activity [5]: 7.1%; inhibition [6]: Active; inhibition [7]: Active; inhibition (HeLa [8]): inactive
30.8 µM | O=c1oc2ccccc2n1Cc1cccc(F)c1 | Non-Toxic | 
9.75 µM | O=c1oc2ccc(Cl)cc2n1Cc1cccc(F)c1 | Non-Toxic | inhibition [9]: Active; Activity [10]: 418 nm; inhibition (HeLa [8]): inactive; Activity [11]: 6%; inhibition [12]: Active
99.3 µM | O=c1oc2ccc([N+](=O)[O-])cc2n1Cc1ccc(Cl)cc1 | Non-Toxic | 
> 100 µM | O=C(Cc1ccc(F)cc1)n1c(=O)oc2ccccc21 | Non-Toxic | 
50.8 µM | O=c1oc2ccccc2n1CC(O)c1ccc(Cl)cc1 (stereo not drawn) | Non-Toxic | 
6.08 µM | O=c1oc2ccc(Cl)cc2n1Cc1ccc(Cl)cc1 | Non-Toxic | Activity [5]: 8.7%; inhibition [6]: Active; inhibition [7]: 52%; Activity [10]: 418 nm; inhibition (HeLa [8]): inactive
35 µM | O=c1oc2ccccc2n1Cc1ccc(Cl)cc1 | Non-Toxic | 
24.9 µM | O=C(Cn1c(=O)oc2ccc(Cl)cc21)c1ccc(Cl)cc1 | Non-Toxic | 
